# Patent publication US10392369B2, “N-[(pyrimidinyloxy)propanyl]benzamides” (Boehringer Ingelheim International GmbH, priority 2016, dated 2019)
# Where two headings read alike, the source gives them in different places.
# Experiments:
# [1] = target: T1, human Orexin 1 receptor (Homo sapiens, UniProt O43613); assay: Assay A: OX1R IP1 (in vitro OX1R potency); format: cell-based; conditions: for Kb: Table 3, read-out: Assay A OX1R Kb (Orexin A concentration); for OX1R potency compared to Example 91 in WO2016/034882 / OX1R selectivity over OX2R (selectivity ratio OX2R Kb/OX1R Kb) compared to Example 91 in WO2016/034882: versus Example 91 in WO2016/034882
# T1 construct: stably expressing the full-length human Orexin 1 receptor; expressed in transfected cells; host or cells: CHO-K1 (CHO-K1/hOx1), co-expressing the aequorin photoprotein
# T1 sequence (O43613 1-425): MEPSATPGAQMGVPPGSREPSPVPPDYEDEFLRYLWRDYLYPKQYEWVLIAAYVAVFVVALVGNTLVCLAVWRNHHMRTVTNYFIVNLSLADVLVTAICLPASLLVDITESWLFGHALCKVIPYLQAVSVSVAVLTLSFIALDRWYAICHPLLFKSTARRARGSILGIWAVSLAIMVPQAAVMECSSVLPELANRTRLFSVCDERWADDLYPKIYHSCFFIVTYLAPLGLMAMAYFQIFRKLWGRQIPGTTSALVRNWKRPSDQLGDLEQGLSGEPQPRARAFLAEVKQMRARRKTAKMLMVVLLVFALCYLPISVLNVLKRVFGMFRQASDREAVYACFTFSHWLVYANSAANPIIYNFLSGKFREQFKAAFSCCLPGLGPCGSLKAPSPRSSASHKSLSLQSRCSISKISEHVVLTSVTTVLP
# Source text: Activation of the orexin receptors expressed in cell lines results in an increase in intracellular IP3 concentration. IP1, a downstream metabolite of IP3, accumulates in cells following receptor activation and is stable in the presence of LiCl. Using Homogeneous Time-Resolved Fluorescence technology with Lumi4-Tb cryptate (commercially available from Cisbio Bioassay.) and a suitable fluorescence plate reader. […] This technique is used to characterize pharmacological modification of the orexin receptors.
# A. In Vitro Testing of OX1R Potency: OX1R IP1
# IP1 measurements are performed in CHO-K1 cells stably expressing the full-length human Orexin 1 receptor and the aequorin photoprotein. Cells are cultivated in Ham's nutrient mixture F12 medium with 10% fetal calf serum, in a 37° C., 95% humidity and 5% CO2 incubator. The CHO-K1/hOx1 cell mass is expanded to larger cell numbers. The cells are obtained as frozen cells in cryo-vials and stored until use at −150° C. […] In preparation for the assay, 24 hours before the assay, the cells are thawed at 37° C. and immediately diluted with cell culture medium. After centrifugation, the cell pellet is re-suspended in medium and then distributed into the assay plates with a density of 10000 cells/25 μL per well. The plates are incubated for one hour at room temperature to reduce edge effects before they are incubated for 24 hours at 37° C./5% CO2. Compounds are prepared by an 8-point serial dilution in DMSO and a final dilution step into assay buffer (HBSS with 20 mM HEPES, 0.1% BSA and 50 mM LiCl, pH 7.4) to ensure a final DMSO concentration of 1% in the assay.
# (§1) On the day of the assay, cells in the plate are washed twice with 60 μL assay buffer (20 μL buffer remained in the wells after washing), followed by adding 5 μL per well of compounds diluted in assay buffer. After 15 minutes of incubation at room temperature 5 μL per well of Orexin A peptide (final concentration: 0.5 nM and/or 50 nM) dissolved in assay buffer is added to the assay plate. The assay plate is incubated for 60 minutes at 37° C. Then 5 μl per well of Anti-IP1-Cryptate Tb solution and 5 μl per well of IP1-d2 dilution are added and the plate is incubated for a further 60 minutes light protected at room temperature.
# (§2) 8-point four parametric non-linear curve fitting and determination of IC50 values and Hill slopes is performed using a regular analysis software e.g. AssayExplorer (Accelrys). In order to establish an agonist concentration independent parameter, Kb values are calculated using the following equation: IC50/((2+(A/EC50)^n)^1/n−1) (with A=concentration agonist, EC50=EC50 agonist, n=Hill slope agonist).
# [2] = target: T2, human orexin 2 receptor (Homo sapiens, UniProt O43614); assay: Assay B: OX2R IP1 (in vitro OX2R potency); format: cell-based; conditions: Table 3; 0.5 nM Orexin A
# T2 construct: stably expressing the full-length human orexin 2 receptor; expressed in transfected cells; host or cells: CHO-K1 (CHO-K1/hOx2), co-expressing the aequorin photoprotein
# T2 sequence (O43614 1-444): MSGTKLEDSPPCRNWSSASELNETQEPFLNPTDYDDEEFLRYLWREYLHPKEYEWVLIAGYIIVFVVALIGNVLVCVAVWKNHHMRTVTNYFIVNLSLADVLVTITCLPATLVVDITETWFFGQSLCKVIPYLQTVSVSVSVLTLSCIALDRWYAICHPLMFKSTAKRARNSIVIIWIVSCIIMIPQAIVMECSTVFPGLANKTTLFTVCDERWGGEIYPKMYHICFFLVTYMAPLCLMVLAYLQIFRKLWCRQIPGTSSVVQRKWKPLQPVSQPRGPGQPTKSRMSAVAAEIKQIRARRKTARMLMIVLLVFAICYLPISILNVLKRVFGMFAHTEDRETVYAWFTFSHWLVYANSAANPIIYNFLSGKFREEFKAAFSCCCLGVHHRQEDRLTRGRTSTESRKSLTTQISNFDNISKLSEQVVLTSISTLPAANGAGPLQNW
# Source text: Activation of the orexin receptors expressed in cell lines results in an increase in intracellular IP3 concentration. IP1, a downstream metabolite of IP3, accumulates in cells following receptor activation and is stable in the presence of LiCl. Using Homogeneous Time-Resolved Fluorescence technology with Lumi4-Tb cryptate (commercially available from Cisbio Bioassay.) and a suitable fluorescence plate reader. […] Chem. Genomics 2009, 3, 22-32. This technique is used to characterize pharmacological modification of the orexin receptors.
# B. In Vitro Testing of OX2R Potency: OX2R IP1
# IP1 measurements are performed in CHO-K1 cells stably expressing the full-length human orexin 2 receptor and the aequorin photoprotein. Cells are cultivated in Ham's nutrient mixture F12 medium with 10% fetal calf serum, in a 37° C., 95% humidity and 5% CO2 incubator. The CHO-K1/hOx2 cell mass is expanded to larger cell numbers. The cells are obtained as frozen cells in cryo-vials and stored until use at −150° C. The viability of the cells after thawing is >90%. In preparation for the assay, 24 hours before the assay, the cells are thawed at 37° C. and immediately diluted with cell culture medium. After centrifugation, the cell pellet is resuspended in medium and then distributed into the assay plates with a density of 5000 cells/25 μL per well. The plates are incubated for one hour at room temperature to reduce edge effects before they are incubated for 24 hours at 37° C./5% CO2. Compounds are prepared by a 8-point serial dilution in DMSO and a final dilution step into assay buffer (HBSS with 20 mM HEPES, 0.1% BSA and 50 mM LiCl, pH 7.4) to ensure a final DMSO concentration of 1% in the assay.
# as §1, with “concentration: 0.5 nM) dissolved” for “concentration: 0.5 nM and/or 50 nM) dissolved”, “are added to all well of the plate and the” for “are added and the”, “room temperature. The emission at 615 nm and 665 nm (Excitation wavelength: 320 nm) are measured using an EnVision reader (PerkinElmer). The ratio between the emission at 665 nm and 615 is calculated by the reader.” for “room temperature.”
# as §2, with “of […]” for “of IC50”, “slope agonist) (see P. Leff, I. G. Dougall, Trends Pharmacol. Sci. 1993, 14(4), 110-112).” for “slope agonist).”
SMILES,Kb ([1]; 0.5 nM Orexin A) [nM],Kb ([1]; 50 nM Orexin A) [nM],OX1R potency compared to Example 91 in WO2016/034882 ([1]; in words),OX1R selectivity over OX2R (selectivity ratio OX2R Kb/OX1R Kb) compared to Example 91 in WO2016/034882 ([1]; in words),Kb [2] [nM],OX2R Kb/OX1R Kb [1],"OX1R selectivity compared to Example 14 in WO2016/034882 ([1]; in words, versus Example 14 in WO2016/034882)"
CCN(C(=O)c1cc(C)ccc1-n1nccn1)[C@@H](C)COc1ncc(C(F)(F)F)cn1 [Example 5],1,1.1,increase,increase,156,,
CCN(C(=O)c1ccccc1-c1ncco1)[C@@H](C)COc1ncc(C(F)(F)F)cn1 [Example 36],3.2,,,increase in OX1R selectivity,511,160,
CCN(C(=O)c1ccccc1-c1noc(C)n1)[C@@H](C)COc1ncc(C(F)(F)F)cn1 [Example 23],2.1,,,increase in OX1R selectivity,435,207,
CCN(C(=O)c1cccc(F)c1-n1nccn1)[C@@H](C)COc1ncc(Br)cn1 [Example 29],2,,,increase in OX1R selectivity,350,178,
CCN(C(=O)c1cc(F)cc(F)c1-n1nccn1)[C@@H](C)COc1ncc(C(F)(F)F)cn1 [Example 22],3.6,,,more selective,1460,406,
CCN(C(=O)c1cccc(C)c1-c1nnc(C)o1)[C@@H](C)COc1ncc(C(F)(F)F)cn1 [Example 21],2,1.9,,increase in OX1R selectivity,540,,
CCN(C(=O)c1ccc(F)cc1-c1ncccn1)[C@@H](C)COc1ncc(C(F)(F)F)cn1 [Example 25],0.81,1.4,,,272,,
CCN(C(=O)c1ccccc1-c1nc(C)no1)[C@@H](C)COc1ncc(C(F)(F)F)cn1 [Example 15],7.8,,,increase in OX1R selectivity,999,128,
CCN(C(=O)c1ccc(C)cc1-n1nccn1)[C@@H](C)COc1ncc(C(F)(F)F)cn1 [Example 13],0.5,0.38,increase,increase,142,,
CCN(C(=O)c1cc(C)ccc1-n1cccn1)[C@@H](C)COc1ncc(C(F)(F)F)cn1 [Example 8],2.2,,,increase in OX1R selectivity,502,228,
CCN(C(=O)c1ccccc1-c1ncccn1)[C@@H](C)COc1ncc(C(F)(F)F)cn1 [Example 28],0.62,0.74,,,176,,increase in OX1R selectivity
CCN(C(=O)c1cc(C)c(C)cc1-n1nccn1)[C@@H](C)COc1ncc(C(F)(F)F)cn1 [Example 2],,0.39,increase in OX1R potency,,34,87,
CCN(C(=O)c1ccccc1-c1cnc(C)o1)[C@@H](C)COc1ncc(C(F)(F)F)cn1 [Example 31],6,,,increase in OX1R selectivity,746,124,
CCN(C(=O)c1c(-n2nccn2)ccc(C)c1F)[C@@H](C)COc1ncc(C(F)(F)F)cn1 [Example 34],1.8,,increase in OX1R potency,increase in OX1R selectivity,431,239,
CCN(C(=O)c1ccccc1-n1nccn1)[C@@H](C)COc1ncc(C(F)(F)F)cn1 [Example 24],1.8,2.6,,,237,,
CCN(C(=O)c1ccc(F)c(F)c1-n1nccn1)[C@@H](C)COc1ncc(C(F)(F)F)cn1 [Example 35],2.5,,,more selective,455,182,
CCN(C(=O)c1ccc(F)cc1-n1nccn1)[C@@H](C)COc1ncc(C(F)(F)F)cn1 [Example 7],4.5,,,more selective,902,201,
